From US8778990B2, “Betulinic acid derivatives and methods of use thereof” (Trustees of Dartmouth College, priority 2008, dated 2014)

System: RAW264.7 macrophages
Experiment: Inhibition of IFNγ-induced NO production (Griess reagent)
Type: cell-based
Conditions: Mus musculus; RAW264.7, 20 ng/mL IFNγ, 2 h pre-treatment, 24 h
Experimental: RAW264.7 macrophages were pre-treated with DMSO or drugs at various concentrations (nM) for 2 hours, and subsequently treated with 20 ng/ml IFNγ for 24 hours. NO concentration in media was determined using a Griess reagent system; cell viability was determined using WST-1 reagent. The betulinic acid derivatives are identified by their TP numbers, as shown herein and described in Example 5.
Nitric Oxide Production and Cell Viability. RAW264.7 macrophages were pre-treated with DMSO or drugs for 2 hours, and subsequently treated with recombinant mouse IFN-γ (Sigma) for 24 hours. NO concentration in media was determined using the Griess reagent system (Promega). Cell viability was determined using WST-1 reagent (Roche).

| Structure (SMILES) | IC50 |
| --- | --- |
| C=C(C)[C@@H]1CC[C@]2(C(=O)n3ccnc3)CC[C@]3(C)[C@H](CC[C@@H]4[C@@]5(C)C=C(C#N)C(=O)C(C)(C)[C@@H]5CC[C@]43C)[C@@H]12 [TP-292] | 71 to 100 nM |
| C=C(C)[C@@H]1CC[C@]2(C(=O)NCC)CC[C@]3(C)[C@H](CCC4[C@@]5(C)C=C(C#N)C(=O)C(C)(C)[C@@H]5CC[C@]43C)[C@@H]12 (stereo partly shown) [TP-321, reference compound] | 88 nM |
| C=C(C)[C@@H]1CC[C@]2(C(=O)NCC(F)(F)F)CC[C@]3(C)[C@H](CC[C@@H]4[C@@]5(C)C=C(C#N)C(=O)C(C)(C)[C@@H]5CC[C@]43C)[C@@H]12 [TP-342, 2-Cyano-N-(2,2,2-trifluoroethyl)-3-oxolupa-1,20(29)-dien-28-amide] | 380 nM |
| C=C(C)[C@@H]1CC[C@]2(C(=O)NCC(F)F)CC[C@]3(C)[C@H](CC[C@@H]4[C@@]5(C)C=C(C#N)C(=O)C(C)(C)[C@@H]5CC[C@]43C)[C@@H]12 [TP-343, 2-Cyano-N-(2,2-difluoroethyl)-3-oxolupa-1,20(29)-dien-28-amide] | 130 nM |
| C=C(C)[C@@H]1CC[C@]2(C(=O)NCCF)CC[C@]3(C)[C@H](CC[C@@H]4[C@@]5(C)C=C(C#N)C(=O)C(C)(C)[C@@H]5CC[C@]43C)[C@@H]12 [TP-344, 2-Cyano-N-(2-fluoroethyl)-3-oxolupa-1,20(29)-dien-28-amide] | 180 nM |
| C=C(C)[C@@H]1CC[C@]2(C#N)CC[C@]3(C)[C@H](CC[C@@H]4[C@@]5(C)C=C(C#N)C(=O)C(C)(C)[C@@H]5CC[C@]43C)[C@@H]12 [TP-345, 2-Cyano-3-oxolupa-1,20(29)-dien-28-onitrile] | 10 to 160 nM |

System: not listed separately
Experiment: TP levels in mouse brain after dietary dosing (LC/MS)
Type: in vivo
Conditions: CD-1 mice fed 200 or 400 mg/kg diet for 3.5 days; compared with TP-319
Experimental: CD-1 mice were fed either 200 or 400 mg/kg diet of either TP-319 or TP-500 for 3.5 days, and TP levels in the brains of the mice were analyzed by LC/MS. The structures of TP-319 and TP-500 are provided herein.

| Structure (SMILES) | concentration in the brain |
| --- | --- |
| CC1(C)CC[C@]2(C(=O)NCC(F)(F)F)CC[C@]3(C)[C@H](C(=O)C=C4[C@@]5(C)C=C(C#N)C(=O)C(C)(C)[C@@H]5CC[C@]43C)[C@@H]2C1 [TP-500, reference compound] | significantly higher concentration in the brain than TP-319 |
